As a reminder, the IC50 is the concentration that gives 50% inhibition.

One assay deals with T1, PDE2 (Cavia porcellus, UniProt A0A286XUV5).
T1 sequence (A0A286XUV5 22-936): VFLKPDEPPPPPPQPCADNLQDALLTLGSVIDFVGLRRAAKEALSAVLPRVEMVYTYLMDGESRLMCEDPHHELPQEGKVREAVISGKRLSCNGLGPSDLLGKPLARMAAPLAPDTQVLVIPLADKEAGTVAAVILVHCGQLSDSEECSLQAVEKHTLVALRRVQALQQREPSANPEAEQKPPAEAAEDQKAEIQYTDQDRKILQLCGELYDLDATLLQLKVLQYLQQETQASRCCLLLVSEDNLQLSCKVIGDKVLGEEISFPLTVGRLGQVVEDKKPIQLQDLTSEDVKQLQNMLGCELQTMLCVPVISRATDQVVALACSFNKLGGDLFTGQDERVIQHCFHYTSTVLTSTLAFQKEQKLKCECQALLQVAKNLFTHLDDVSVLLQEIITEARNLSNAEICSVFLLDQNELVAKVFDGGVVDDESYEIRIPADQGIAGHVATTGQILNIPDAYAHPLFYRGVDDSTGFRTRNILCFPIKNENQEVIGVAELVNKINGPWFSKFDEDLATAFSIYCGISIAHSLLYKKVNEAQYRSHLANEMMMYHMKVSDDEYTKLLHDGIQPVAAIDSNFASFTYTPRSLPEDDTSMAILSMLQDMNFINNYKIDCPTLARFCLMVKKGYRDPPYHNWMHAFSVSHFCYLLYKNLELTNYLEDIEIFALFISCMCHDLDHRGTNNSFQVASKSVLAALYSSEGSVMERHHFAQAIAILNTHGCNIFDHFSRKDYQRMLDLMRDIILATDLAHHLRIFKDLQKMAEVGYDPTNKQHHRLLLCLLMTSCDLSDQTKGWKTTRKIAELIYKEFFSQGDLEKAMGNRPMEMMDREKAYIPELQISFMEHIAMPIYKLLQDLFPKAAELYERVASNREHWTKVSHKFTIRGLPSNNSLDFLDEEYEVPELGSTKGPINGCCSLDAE
As to the kind of experiment: Inhibition of cyclic nucleotide PDE activity (Assay I), PDE2. It counts as biochemical, guinea pig. As to the method: (§1) Under a protocol approved by the Animal Care and Use Committee of Taipei Medical University, five male guinea pigs (Hartley), weighing 500-600 g, were sacrificed. The lungs (15 g) or hearts (4 g) taken therefrom were chopped into small pieces and homogenized with a glass/teflon homogenizer (Glas-Col, Terre Haute, Ind., USA) in 10 volumes of cold medium (pH 6.5) containing 20 mM Bis-Tris, 2 mM benzamidine, 2 mM EDTA, 50 mM sodium chloride, 0.1 mM phenylmethanesulfonyl fluoride (PMSF), and 1 mM dithiothreitol. At 4° C., the homogenate was centrifuged at 170 g for 15 min, and the supernatant thereof was then re-centrifuged at 40,000 g for 30 min. […] The column was washed with two bed volumes of homogenate buffer to remove unbound material, where the resin beads therein will bind with proteins, such as PDE proteins. Proteins bound to the Q-sepharose beads were eluted with various concentrations (0.23, 0.34, 0.44, 0.69, and 1.00 M) of NaCl dissolved in homogenate buffer (for each concentration, 40-50 mL elution buffer were applied) at a flow rate of 30 ml/h. Fractions (3 ml each) were collected, and ethylene glycol (EG) was added thereto until a final concentration of 30% (v/v). And then the samples were frozen at −70° C.
(§2) The activities of PDE1-5 in the homogenate were measured with a two-step procedure according to the method of Thompson and Appleman, using cAMP with [^3H]-cAMP or cGMP with [^3 H]-cGMP as substrates. The PDE enzyme prepared (25 μl) with 10 μl inhibitor or the solvents therefor was incubated for 30 min at 37° C. in a total assay buffer, where the final volume of the assay is amounted to 100 μl. In accordance with the features of the PDE isozymes, the assay buffer contains 50 mM Tris/HCl (pH 7.4), 3 mM MgCl2, 1 mM dithiothreitol, and 0.05% BSA, and optionally contains 1 uM cAMP with 0.2 μCi [^3H]-cAMP as a substrate alone or in the presence of 0.1 unit calmodulin with 10 μM CaCl2, or 5 μM cGMP, and 1 μM cGMP with 0.2 μCi [^3H]-cGMP as another substrate alone or in the presence of 0.1 unit calmodulin with 10 μM CaCl2.
(§3) The PDE enzyme and the inhibitors (or their solvent) therefor were mixed and incubated on ice for 30 min previously, and then mixed with the assay buffer. The assay was initiated by transferring the mixture to a water bath at 37° C. Following the other 30 min incubation, the reaction was stopped by transferring the reaction vessel to a bath of boiling water for 3 min. After cooling on ice, 20 μl of the 1 mg/ml of Crotalus atrox venom was added to the reaction mixture, and the mixture was incubated at 37° C. for 10 min. The uncatalyzed substrates, such as cAMP, [^3H]-cAMP, cGMP, or [^3H]-cGMP were removed by the addition of 500 μl of a 1-in-1 Tris-HCl (40 mM) buffer suspension of Dowex resin (1×8-200) with incubation on ice for 30 min, since the bindings of the cyclic nucleotides and the resin. Each tube was then centrifuged for 2 min at 6000 rpm, and 100 μl of the supernatant was removed and counted by a β-counter for calculating the enzyme (PDEs) activity.
(§4) The IC50 values of flavonoids and various reference drugs were calculated using non-linear regression analysis by the software SigmaPlot 7.0 (Sigma Chemical, St. Louis Mo., USA). All values are shown as the mean±S.E.M. Differences among values, which are equal or greater to three groups, were statistically calculated by one-way analysis of variance (ANOVA), and then determined by the least significant difference (LSD). The difference between two values, however, was determined by use of Student's unpaired t-test. Differences were considered statistically significant if the P-value was less than 0.05.

In a further assay the test system is PDE3. Description: Inhibition of cyclic nucleotide PDE activity (Assay I), PDE3. The settings on record: mean ± S.E.M. (n); read-out: IC50 on phosphodiesterase isozyme 3. It counts as biochemical, guinea pig. As to the method:
as §1, §2, §3, §4

The mark [1] stands for this setting: mean ± S.E.M. (n), read-out: IC50 on phosphodiesterase isozyme 2.

Read-outs that look alike come from different tables or passages of the source.

With `O=c1cc(-c2ccc(O)c(O)c2)oc2cc(O[C@@H]3O[C@H](CO)[C@@H](O)[C@H](O)[C@H]3O)cc(O)c12` [Luteolin-7-glucoside], the values for the IC50 on PDE2 (setting [1]) and in the assay with PDE3 were 35.1 ± 0.2 µM and more than 100 µM, respectively.

Regarding `O=c1c(-c2ccc(O)cc2)coc2cc(O)cc(O)c12` [Genistein], the IC50 was determined as 1.7 ± 0.2 µM on PDE2 (setting [1]) and 12.9 ± 5.2 µM in the assay with PDE3.

Take `O=c1c(O)c(-c2cc(O)c(O)c(O)c2)oc2cc(O)cc(O)c12` [Myricetin]: the IC50 at PDE2 (setting [1]) was found to be 12.8 ± 0.6 µM; with PDE3, 12.4 ± 3.3 µM.

Regarding `O=c1cc(-c2ccc(O)cc2)oc2cc(O)cc(O)c12` [Apigenin], the figures for the IC50 on PDE2 (setting [1]) and in the assay with PDE3 were 16.7 ± 6.3 µM and 10.5 ± 3.5 µM, respectively.

`O=c1c(O)c(-c2ccc(O)c(O)c2)oc2cc(O)cc(O)c12` [Quercetin]: the IC50 on PDE2 (setting [1]) is 17.9 ± 3.4 µM; in the assay on PDE3 it was 5.6 ± 1 µM.

For `COc1cc(O)c2c(=O)c(-c3ccc(O)cc3)coc2c1` [Prunetin], the IC50 against PDE2 and with PDE3 was more than 100 µM in each case.

`COc1ccc(C2CC(=O)c3c(O)cc(O)cc3O2)cc1O` (stereo not drawn) [Hesperetin]: the IC50 on PDE2 (setting [1]) and in the assay on PDE3 was more than 100 µM throughout.

With `O=c1cc(-c2ccc(O)c(O)c2)oc2cc(O)cc(O)c12` [Luteolin], the IC50 on PDE2 (setting [1]) is 13.3 ± 0.8 µM; in the assay with PDE3, 10.1 ± 1.8 µM.

For `O=C1CC(c2ccc(O)c(O)c2)Oc2cc(O)cc(O)c21` (stereo not drawn) [Eriodictyol], the IC50 on PDE2 (setting [1]) was more than 100 µM; with PDE3, 52.5 ± 17.7 µM.

As to `O=c1c(-c2ccc(O)cc2)coc2cc(O)ccc12` [Daidzein], the 50% inhibitory concentration (IC50) on PDE2 (setting [1]) was more than 100 µM; in the assay with PDE3, 28.6 ± 8.5 µM.

As to `COc1ccc(-c2coc3cc(O)cc(O)c3c2=O)cc1` [Biochanin A], the values for the IC50 at PDE2 (setting [1]) and with PDE3 were 27.9 ± 4.1 µM and more than 100 µM, respectively.

As for `O=c1cc(-c2ccccc2)oc2cc(O)cc(O)c12` [Chrysin], the IC50 on PDE2 (setting [1]) and in the assay on PDE3 was more than 100 µM in each case.

For the origin of these results see US20060229358A1, “Pharmaceutical composition containing flavonoids” (Taipei Medical University, priority 2005, published 2006).
